≈ marks a conversion by molar mass, not a printed value. Like-named read-outs stand apart in the source and are kept apart here. Where a SMILES comes first, the peptide text is derived from it. Bridges are numbered along the chain shown (N, C = ends). [ ]: non-standard residue; d: D form. The star is where a group is joined. Ileψ(thiazoline)Cys = CC[C@H](C)[C@H](N)C1=N[C@H](C(=O)*)CS1; dOrn = NCCC[C@@H](N)C(=O)O
Tests used:
[1] = test system: Janthinobacterium lividum strains; experiment: Antibiotic MIC tests, resistance profile in words; format: cell-based; settings: Table 7 and 8
Protocol: (§1) The antibiotic resistance profile and MICs tests were performed using Janthinobacterium lividum grown from cultures purified and grown in vegitone LB broth.

DB00118 = experiment: Antibiotic MIC tests; format: cell-based, Janthinobacterium lividum; settings: strain DB00118
Protocol: as §1

DB00121 = experiment: Antibiotic MIC tests; format: cell-based, Janthinobacterium lividum; settings: strain DB00121
Protocol: as §1

DB02378 = experiment: Antibiotic MIC tests; format: cell-based, Janthinobacterium lividum; settings: strain DB02378
Protocol: as §1

DB02473 = experiment: Antibiotic MIC tests; format: cell-based, Janthinobacterium lividum; settings: strain DB02473
Protocol: as §1

E. Coli ATCC25922 [2] = experiment: Antibiotic MIC tests; format: cell-based; settings: Escherichia coli
[3] = test system: Janthinobacterium lividum strains; experiment: Internal antibiotic resistance tests (BD BBL Sensi-Disc, zone of inhibition); format: cell-based; settings: all 5 strains; disc content per antibiotic (e.g. penicillin 10 IU); FIG. 5
Protocol: One Janthinobacterium lividum colony of 3-day old grown in 50% BHI agar was mixed well in 1 ml of 1×PBS buffer, diluted 10× and 100×, respectively. 200 μl of diluted Janthinobacterium lividum cells were evenly plated onto R2A/BHI agar plates in triplicate in 150 mm petri dishes. Antibiotic discs (BD BBL Sensi-Disc antimicrobial susceptibility test discs) were dispensed using a Disc dispenser (BD BBL Sensi-Disc Designer Dispenser System, 12-Place). Plates were incubated for 2-3 days at room temperature and imaged at the end of incubation.
The sensitivity of Janthinobacterium lividum to antibiotics is reflected by a clear zone of inhibition of Janthinobacterium lividum cells surrounding the antibiotic discs. The zone of inhibition was measured using ImageJ and was transformed into cm for analysis.

E. Coli ATCC25922 [4] = settings: cited from earlier work
[5] = Janthinobacterium lividum, read-out: MIC

In the case of `C[C@H]1[C@H](NC(=O)/C(=N\OC(C)(C)C(=O)O)c2csc(N)n2)C(=O)N1S(=O)(=O)O` [Aztreonam], the “sensitivity of Janthinobacterium lividum strains to antibiotics” value (“sensitivity … to antibiotics” for short) [1] is reported as “less sensitive”, the MIC (DB00118; [5]) is reported as 32 µg/mL (≈ 73.5 µM) and the MIC (DB00121; [5]) is reported as 16 µg/mL (≈ 36.7 µM). The MIC (DB02378; [5]) was 16 µg/mL (≈ 36.7 µM), the MIC (DB02473; [5]) was 16 µg/mL (≈ 36.7 µM) and the MIC (E. Coli ATCC25922 [2]) was 0.25 µg/mL (≈ 0.574 µM).
In the case of `CC(=O)OCC1=C(C(=O)O)N2C(=O)[C@@H](NC(=O)Cc3cccs3)[C@H]2SC1` [cephalothin], the “sensitivity of Janthinobacterium lividum to antibiotic discs” value (shortened to “sensitivity … to antibiotic discs”) [3] is reported as “sensitive”.
In the case of `O=C(N[C@H](CO)[C@H](O)c1ccc([N+](=O)[O-])cc1)C(Cl)Cl` [Chloramphenicol], the “sensitivity … to antibiotic discs” value [3] is reported as “sensitive”, the “sensitivity … to antibiotics” value [1] is reported as “less sensitive” and the MIC (DB00118; [5]) is reported as 2 µg/mL (≈ 6.19 µM). The MIC (DB00121; [5]) was 2 µg/mL (≈ 6.19 µM), the MIC (DB02378; [5]) was 2 µg/mL (≈ 6.19 µM) and the MIC (DB02473; [5]) was 2 µg/mL (≈ 6.19 µM). For the same compound, the MIC (E. Coli ATCC25922 [2]) was 4 µg/mL (≈ 12.4 µM) and the “MIC, CLSI QC ranges” value (E. Coli ATCC25922 [4]) was 2 to 8 µg/mL.
With Amoxicillin clavulanate the “sensitivity … to antibiotics” value [1] was “less sensitive”, the MIC (DB00118) was 1 µg/mL and the MIC (DB00121) was 0.5 µg/mL. The MIC (DB02378) was 1 µg/mL and the MIC (DB02473) was 1 µg/mL.
With `CC[C@H](C)[C@H](N)C1=N[C@H](C(=O)N[C@@H](CC(C)C)C(=O)N[C@H](CCC(=O)O)C(=O)N[C@H](C(=O)N[C@H]2CCCCNC(=O)[C@H](CC(N)=O)NC(=O)[C@@H](CC(=O)O)NC(=O)[C@H](Cc3cnc[nH]3)NC(=O)[C@@H](Cc3ccccc3)NC(=O)[C@H]([C@@H](C)CC)NC(=O)[C@@H](CCCN)NC2=O)[C@@H](C)CC)CS1` [Bacitracin] ({Ileψ(thiazoline)Cys}-L[dE]IK[dOrn]I[dF]H[dD]N; lactam 4-C) the “sensitivity … to antibiotics” value [1] was “resistant”, the MIC (DB00118; [5]) was greater than 64 µg/mL and the MIC (DB00121; [5]) was greater than 64 µg/mL. For the same compound, the MIC (DB02378; [5]) was greater than 64 µg/mL, the MIC (DB02473; [5]) was greater than 64 µg/mL and the MIC (E. Coli ATCC25922 [2]) was greater than 64 µg/mL.
For `CC[C@H]1OC(=O)[C@H](C)[C@@H](O[C@H]2C[C@@](C)(OC)[C@@H](O)[C@H](C)O2)[C@H](C)[C@@H](O[C@@H]2O[C@H](C)C[C@H](N(C)C)[C@H]2O)[C@](C)(O)C[C@@H](C)C(=O)[C@H](C)[C@@H](O)[C@]1(C)O` [Erythromycin], the “sensitivity … to antibiotic discs” value [3] was “sensitive”, the MIC (DB00118; [5]) was 15 µg/mL (≈ 20.4 µM) and the MIC (DB00121; [5]) was 8 µg/mL (≈ 10.9 µM). For the same compound, the MIC (DB02378; [5]) was 8 µg/mL (≈ 10.9 µM), the MIC (DB02473; [5]) was 15 µg/mL (≈ 20.4 µM) and the MIC (E. Coli ATCC25922 [2]) was 64 µg/mL (≈ 87.2 µM).
For `O=C(O)c1cn(C2CC2)c2cc(N3CCNCC3)c(F)cc2c1=O` [Ciprofloxacin], the “sensitivity … to antibiotic discs” value [3] was “sensitive”, the MIC (DB00118; [5]) was 0.5 µg/mL (≈ 1.51 µM) and the MIC (DB00121; [5]) was 0.25 µg/mL (≈ 0.754 µM). It also gave an MIC (DB02378; [5]) of 0.5 µg/mL (≈ 1.51 µM) and an MIC (DB02473; [5]) of 0.5 µg/mL (≈ 1.51 µM).
In the case of `NCC[C@H](O)C(=O)N[C@@H]1C[C@H](N)[C@@H](O[C@H]2O[C@H](CN)[C@@H](O)[C@H](O)[C@H]2O)[C@H](O)[C@H]1O[C@H]1O[C@H](CO)[C@@H](O)[C@H](N)[C@H]1O` [Amikacin], the MIC (DB00118; [5]) is reported as 2 µg/mL (≈ 3.42 µM), the MIC (DB00121; [5]) is reported as 1 µg/mL (≈ 1.71 µM) and the MIC (DB02378; [5]) is reported as 2 µg/mL (≈ 3.42 µM). The MIC (DB02473; [5]) was 2 µg/mL (≈ 3.42 µM), the MIC (E. Coli ATCC25922 [2]) was 2 µg/mL (≈ 3.42 µM) and the “MIC, CLSI QC ranges” value (E. Coli ATCC25922 [4]) was 0.5 to 4 µg/mL.
In the case of `[H]/N=C(/N)N[C@H]1[C@H](O)[C@@H](O)[C@H](O[C@@H]2O[C@@H](C)[C@](O)(C=O)[C@H]2O[C@@H]2O[C@@H](CO)[C@H](O)[C@@H](O)[C@@H]2NC)[C@@H](N/C(N)=N\[H])[C@@H]1O` [streptomycin], the “sensitivity … to antibiotic discs” value [3] is reported as “sensitive”.
For `C[C@@H](O)[C@H]1C(=O)N2C(C(=O)O)=C(S[C@@H]3CN[C@H](C(=O)N(C)C)C3)[C@H](C)[C@H]12` [Meropenem], the “sensitivity … to antibiotics” value [1] was “less sensitive”, the MIC (DB00118; [5]) was 2 µg/mL (≈ 5.22 µM) and the MIC (DB00121; [5]) was 8 µg/mL (≈ 20.9 µM). For the same compound, the MIC (DB02378; [5]) was 2 µg/mL (≈ 5.22 µM), the MIC (DB02473; [5]) was 2 µg/mL (≈ 5.22 µM) and the MIC (E. Coli ATCC25922 [2]) was less than 0.063 µg/mL.
With `CN[C@H](CC(C)C)C(=O)N[C@H]1C(=O)N[C@@H](CC(N)=O)C(=O)N[C@H]2C(=O)N[C@H]3C(=O)N[C@H](C(=O)N[C@H](C(=O)O)c4cc(O)cc(O)c4-c4cc3ccc4O)[C@H](O)c3ccc(c(Cl)c3)Oc3cc2cc(c3O[C@@H]2O[C@H](CO)[C@@H](O)[C@H](O)[C@H]2O[C@H]2C[C@](C)(N)[C@H](O)[C@H](C)O2)Oc2ccc(cc2Cl)[C@H]1O` [vancomycin] the “sensitivity … to antibiotic discs” value [3] was “sensitive”.

— patent US12064459B2, “Compositions and methods for improving skin health and for the treatment and prevention of diseases, disorders and conditions associated with pathogenic microbes” (priority 2019, dated 2024)
